The subject of one series is dd-strain mice. Put plainly: Acute toxicity test, oral. Type of series: in vivo. As to conditions: 7-week-old dd-strain mice. The method, then:
Using 7-week-old dd-strain mice, a powder rich in lactosucrose, obtained by the method in Example A-4 described later, was administered orally to the mice for acute toxicity test. No mouse died up to a dose of 15 g/kg mouse, and a higher dose test was impossible. […] Similarly as above, a powder rich in erlose obtained by the method in Example A-6 described later, a syrup rich in xylosylfructoside obtained by the method in Example A-8 described later, a syrup rich in fructosyltrehalose obtained by the method in Example A-11, or a syrup rich in isomaltosylfructoside obtained by the method in Example A-12 described later was orally administered to 7-week-old dd-strain mice for acute toxicity test. No mouse died up to a dose of 15 g/kg mouse, and a higher does test was impossible.
With `OC[C@H]1O[C@@H](O[C@H]2[C@H](O)[C@@H](O)[C@@H](O[C@]3(CO)O[C@H](CO)[C@@H](O)[C@@H]3O)O[C@@H]2CO)[C@H](O)[C@@H](O)[C@H]1O` [lactosucrose], the “Toxicity (in words)” value is recorded as “relatively low in toxicity”.

The test system of the next series is β-fructofuranosidase. In words: Inhibition of the enzyme activity by metal ions. Type of series: biochemical, Bacillus sp. V230 (FERM BP-5054). The settings on record: one mM metal ion. How it is done: The activity of β-fructofuranosidase according to the present invention is assayed as follows: Add 0.2 ml of an enzyme solution to 5 ml of an aqueous solution (pH 6.0) consisting of 1.0 w/v % sucrose, 20 mM acetate buffer, and 5 mM calcium chloride. Incubate the mixture at 40° C. for 10 min, add the Somogyi copper solution to suspend the reaction, and assay the reducing power by the Somogyi-Nelson's method. As a control, provide an enzyme solution pre-heated to inactivate the enzyme at 100° C. for 10 min, and assay the reducing power similarly as above. One unit activity of the enzyme is defined as the amount of enzyme that increases the reducing power of 2 μmol glucose per minute when assayed on the above assay.
In accordance with the method used in the above assay for the enzyme activity, the influence of pH and temperature on the present β-fructofuranosidase activity was studied in the presence of or in the absence of 5 mM calcium chloride. […] The optimum pH of the enzyme was about 5.5-6.0 when incubated at 40° C. for 10 min both in the presence of and in the absence of calcium ion, while the optimum temperature of the enzyme was about 50° C. in the presence of calcium ion and about 45° C. in the absence of calcium ion when incubated at pH 6.0 for 10 min. The pH stability of the present enzyme was determined by incubating in 50 mM buffers with different pHs at 4° C. for 24 hours, and assaying the residual enzyme activity after adjusting the buffers to pH 6. The thermal stability of the enzyme was determined by incubating in 20 mM acetate buffers (pH 6.0) at different temperatures for an hour, and assaying the residual enzyme activity in each buffer after cooling the buffers. The results of pH and thermal stabilities of the present enzyme were respectively in FIGS. 3 and 4. The pH stability of the enzyme was about 5.0-8.0, and the thermal stability was about 45° C. […] One mM Cu^++, Pb^++, Fe^++, Fe^+++ or Hg^++ inhibited the enzyme activity.
In the case of `[Pb+2]` [Pb^++], the “Inhibition of the enzyme activity” value is listed as “inhibited”.
The same measure, in the same setting: as for `[Cu+2]` [Cu^++], the entry is “inhibited”; as for `[Fe+3]` [Fe^+++], “inhibited”; as for `[Fe+2]` [Fe^++], “inhibited”.
On the same count and under the same terms, as for `[Hg+2]` [Hg^++], the entry is “inhibited”.

The test system of another series is β-fructofuranosidase. In words: Substrate specificity (TLC). Type of series: biochemical, Bacillus sp. V230 (FERM BP-5054). The settings on record: 2 w/v % substrate, 2 units/g substrate, 40° C., pH 5.5, 24 hours. The method, then: A solution with a final concentration of 2 w/v % raffinose, erlose, stachyose, lactose, xylofructoside, maltose, cellobiose, lactose, inulin or laevan as a substrate was mixed with 2 units/g substrate of a β-fructofuranosidase obtained by the method in Experiment 2, and allowed to react enzymatically at 40° C. and pH 5.5 for 24 hours. The reaction mixture was subjected to thin layer chromatography (hereinafter abbreviated as "TLC") using "KIESEL GEL 60", an aluminum plate, 20×20 cm, commercialized by Merck & Co., Inc., NJ, USA, to confirm whether the enzyme acts on these saccharides. The solvent system used in the TLC consisted of 1-butanol, pyridine, and water (=7:3:1 by volume), and samples were developed once at ambient temperature. The saccharides comprising fructose units as constituent saccharides were colored by spraying a 0.5-N phosphoric acid solution containing 0.2 w/v % naphthoresorcinol and heating at 110° C. for about 5 min, while other saccharides were colored by spraying a methanol solution containing 20 w/v % sulfuric acid and heating at 110° C. for about 10 min.
Consider laevan, for which the “Action of the enzyme on the substrate (release of fructose)” value (“Action of the enzyme on the substrate” below) is listed as “does not act on”.
Regarding `OC[C@H]1O[C@H](OC[C@H]2O[C@H](O[C@]3(CO)O[C@H](CO)[C@@H](O)[C@@H]3O)[C@H](O)[C@@H](O)[C@@H]2O)[C@H](O)[C@@H](O)[C@H]1O` [Raffinose], the “Action of the enzyme on the substrate” value was “acts on”.
On the same count and under the same terms, to `OC[C@H]1O[C@@H](O[C@H]2[C@H](O)[C@@H](O)C(O)O[C@@H]2CO)[C@H](O)[C@@H](O)[C@@H]1O` (some centres unmarked) [Cellobiose] belongs “does not act on”.
Still for that read-out and setting: to `OC[C@H]1O[C@H](O[C@H]2[C@H](O)[C@@H](O)[C@H](O)O[C@@H]2CO)[C@H](O)[C@@H](O)[C@@H]1O` [Maltose] belongs “does not act on”; to `OC[C@H]1O[C@@](CO)(O[C@H]2O[C@H](CO)[C@@H](O[C@H]3O[C@H](CO)[C@@H](O)[C@H](O)[C@H]3O)[C@H](O)[C@H]2O)[C@@H](O)[C@@H]1O` [erlose], “acts on”; to inulin, “does not act on”.
Same read-out and setting: as for `OC[C@H]1O[C@@H](O[C@H]2[C@H](O)[C@@H](O)[C@@H](O[C@]3(CO)O[C@H](CO)[C@@H](O)[C@@H]3O)O[C@@H]2CO)[C@H](O)[C@@H](O)[C@H]1O` [lactosucrose], the entry is “acts on”; as for `OC[C@H]1O[C@@H](O[C@H]2[C@H](O)[C@@H](O)C(O)O[C@@H]2CO)[C@H](O)[C@@H](O)[C@H]1O` (some centres unmarked) [Lactose], “does not act on”.
For `OC[C@H]1O[C@H](OC[C@H]2O[C@H](OC[C@H]3O[C@H](O[C@]4(CO)O[C@H](CO)[C@@H](O)[C@@H]4O)[C@H](O)[C@@H](O)[C@@H]3O)[C@H](O)[C@@H](O)[C@H]2O)[C@H](O)[C@@H](O)[C@H]1O` [stachyose], the “Action of the enzyme on the substrate” value is on record as “acts on”.
With `OC[C@H]1O[C@@](CO)(O[C@H]2OC[C@@H](O)[C@H](O)[C@H]2O)[C@@H](O)[C@@H]1O` [xylofructoside], the “Action of the enzyme on the substrate” value was “acts on”.
For `OC[C@H]1O[C@@](CO)(O[C@H]2O[C@H](CO)[C@@H](O)[C@H](O)[C@H]2O)[C@@H](O)[C@@H]1O` [sucrose], the “Action of the enzyme on the substrate” value was “acts on”.

The next series deals with β-fructofuranosidase. In words: Acceptor specificity (TLC, sucrose as donor). Type of series: biochemical, Bacillus sp. V230 (FERM BP-5054). The settings on record: summary of Table 1. The method, then: A saccharide solution with a final concentration of 10%, which consists of one of the monosaccharides, oligosaccharides, and alcohols in Table 1, and an equal amount of sucrose as a donor, d.s.b., was mixed with 2 units/g sucrose of a purified β-fructofuranosidase obtained by the method in Experiment 2, and allowed to react enzymatically at 40° C. and pH 5.5 for 24 hours. The mixtures before the enzymatic reaction and the reaction mixtures after the enzymatic reaction were subjected to TLC similarly as in Experiment 4, and the saccharides were colored by spraying 0.5-N phosphoric acid containing 0.2 w/v % naphthoresorcinol and heating at 110° C. for about 5 min to check the formation of transferred saccharides.
As for `OC[C@@H](O)[C@@H](O)[C@H](O)[C@@H](O)CO` [D-Sorbitol], the “Transfer of fructosyl residue to the acceptor (in words)” value (shortened to “Transfer of fructosyl residue”) is listed as “effectively transfers”.
On the same count and under the same terms, as for `OCCO` [Ethylene glycol], the entry is “effectively transfers”; as for `OC[C@H]1O[C@H](O[C@H]2O[C@H](CO)[C@@H](O)[C@H](O)[C@H]2O)[C@H](O)[C@@H](O)[C@@H]1O` [Trehalose], “effectively transfers”; as for `OC[C@H]1O[C@@H](O[C@H]2[C@H](O)[C@@H](O)C(O)O[C@@H]2CO)[C@H](O)[C@@H](O)[C@@H]1O` (some centres unmarked) [Cellobiose], “effectively transfers”.
Consider `OC[C@H]1O[C@H](OC[C@H]2OC(O)[C@H](O)[C@@H](O)[C@@H]2O)[C@H](O)[C@@H](O)[C@@H]1O` (some centres unmarked) [Isomaltose], for which the “Transfer of fructosyl residue” value is “effectively transfers”.
Consider `OC[C@H]1O[C@H](O[C@H]2[C@H](O)[C@@H](O)[C@H](O)O[C@@H]2CO)[C@H](O)[C@@H](O)[C@@H]1O` [Maltose], for which the “Transfer of fructosyl residue” value is listed as “effectively transfers”.
On the same count and under the same terms, to `O=C[C@H](O)[C@@H](O)[C@@H](O)[C@H](O)CO` [D-Galactose] belongs “effectively transfers”; to `OC[C@H]1O[C@H](O[C@H]2[C@H](O)[C@@H](O)[C@@H](O[C@H]3[C@H](O)[C@@H](O)C(O)O[C@@H]3CO)O[C@@H]2CO)[C@H](O)[C@@H](O)[C@@H]1O` (some centres unmarked) [Maltotriose], “effectively transfers”; to `OC[C@H]1O[C@H](OC[C@H]2OC(O)[C@H](O)[C@@H](O)[C@@H]2O)[C@H](O)[C@@H](O)[C@H]1O` (some centres unmarked) [Melibiose], “effectively transfers”.
The same measure, in the same setting: as for `OC[C@H]1O[C@@H](O[C@H]2[C@H](O)[C@@H](O)C(O)O[C@@H]2CO)[C@H](O)[C@@H](O)[C@H]1O` (some centres unmarked) [Lactose], the entry is “effectively transfers”.
On the same count and under the same terms, to `O=C[C@H](O)[C@@H](O)[C@H](O)CO` [D-Xylose] belongs “effectively transfers”; to `OC[C@H]1O[C@H](OC[C@H]2O[C@H](O[C@H]3[C@H](O)[C@@H](O)C(O)O[C@@H]3CO)[C@H](O)[C@@H](O)[C@@H]2O)[C@H](O)[C@@H](O)[C@@H]1O` (some centres unmarked) [Panose], “effectively transfers”.
For `OC[C@@H](O)[C@@H](O[C@H]1O[C@H](CO)[C@@H](O)[C@H](O)[C@H]1O)[C@H](O)[C@@H](O)CO` [Maltitol], the “Transfer of fructosyl residue” value is reported as “effectively transfers”.
Same read-out and setting: to `OC[C@@H](O)[C@H](O)[C@@H](O)CO` [D-Xylitol] belongs “effectively transfers”; to `OCC(O)CO` [Glycerol], “effectively transfers”.

Source of the values: patent publication US5952204A, “β-fructofuranosidase, its preparation and uses” (priority 1995, dated 1999).
